According to patent US12564575B2 (priority 2019, dated 2026):
Entries after “also recorded” stand apart in the source; their conditions may differ.

Columns and labels:
[1] = tested on: venom MP (Sistrurus venom metalloprotease activity); assay type: biochemical, Viper, elapid and colubrid venom; conditions: FIG. 4, Table 2; comparison of hydroxamate metalloprotease inhibitors
[2] = tested on: vero epithelial cells (CCL-81); assay: ECIS study of vero epithelial cells exposed to snake venom; assay type: cell-based, African green monkey; conditions: for cellular function and cell-cell junction integrity measured by resistance: C. scutulatus whole venom (high sPLA2 content)
Streptococcus suis = assay: Juvenile pig with Streptococcus suis infection during experimental envenoming study; assay type: in vivo, Sus domesticus; conditions: S. suis infected juvenile pig; LY315920 plus single non-curative antibiotic dose; euthanized as scheduled
[3] = tested on: LPS/OA-induced lung injury and ARDS; assay type: in vivo, C57BL/6 mice
LPS/OA induced ARDS = tested on: LPS/OA induced ARDS; design: species or system C57BL/6 mice; conditions: mouse, in vivo, po, 10 mg/kg

Structure (SMILES)	potency (IC50) against venom metalloprotease activity, in words [1]	difference in response between the two varespladib doses ([2]; 0.05 mg/ml versus 0.01 mg/mL)	inter-cellular attachments (resistance) and cell viability (capacitance) ([2]; C. scutulatus and Daboia russelli (Pakistan) venoms, varespladib 0.05 mg/ml and 0.01 mg/mL)	cellular function and cell-cell junction integrity measured by resistance [2]	survival (Streptococcus suis)	clinical appearance of treated animals ([3]; […], 24 and 48 hours, versus lethargic, tachypneic controls)	lung sound amplitude, distance from maximum (audiogram) ([3]; […], recordings at 24 hours, control −29.7 db)	difference in lung sound amplitude between treated and untreated mice ([3]; […], treated quieter)	alveolar damage (ATS workshop lung injury score) ([3]; mouse, in vivo)	damage from LPS/OA induced ARDS (histopathology) (LPS/OA induced ARDS)
CNC(=O)[C@@H](NC(=O)[C@H](CC(C)C)[C@H](O)C(=O)NO)C(C)(C)C [marimastat]	good to excellent performance	–	–	–	–	–	–	–	–	–
CCc1c(C(=O)C(N)=O)c2c(OCC(=O)O)cccc2n1Cc1ccccc1 [varespladib]	–	no significant difference	recovers and stabilizes inter-cellular attachments (resistance) and cell viability (capacitance)	preserves cellular function and cell-cell junction integrity	> 100 h	–	–	–	–	–
C[C@H](Cc1cccc(-c2cc(Cc3ccccc3)ccc2C(N)=O)c1)C(=O)O [AZD2716, (R)-3-(5′-benzyl-2′-carbamoyl-[1,1′-biphenyl]-3-yl)-2-methylpropanoic acid]	–	–	–	preserves cellular function and cell-cell junction integrity	–	bright, alert and responsive	−38.5 db	~10 dB	prevented and rescued; also recorded: protects and reduces alveolar damage	rescue and reduce damage
